Key:
[1] = biological target: Adenosine receptor A2a (Homo sapiens, UniProt P29274); assay: Antagonist activity at human adenosine A2A receptor; type: functional
[2] = species on record: Homo sapiens; assay: Selectivity for human adenosine A2A receptor over human adenosine A1 receptor
[3] = system: Rattus norvegicus; assay: Effect on rat catalepsy model at 1 mg/kg, po after 1 hr; type: functional
[4] = system: Rattus norvegicus; assay: Effect on rat catalepsy model at 1 mg/kg, po after 4 hrs; type: functional
[5] = system: Rattus norvegicus; assay: Effect on rat catalepsy model at 3 mg/kg, po after 1 hr; type: functional
[6] = AUC in rat catalepsy model at 3.0 mg/kg, po; type: ADME, organism-based; design: dose 3 mg/kg, route oral; conditions: in vivo
[7] = system: Rattus norvegicus; assay: Effect on rat catalepsy model at 3 mg/kg, po after 4 hrs; type: functional

Chain of Adenosine receptor A2a (P29274 whole entry): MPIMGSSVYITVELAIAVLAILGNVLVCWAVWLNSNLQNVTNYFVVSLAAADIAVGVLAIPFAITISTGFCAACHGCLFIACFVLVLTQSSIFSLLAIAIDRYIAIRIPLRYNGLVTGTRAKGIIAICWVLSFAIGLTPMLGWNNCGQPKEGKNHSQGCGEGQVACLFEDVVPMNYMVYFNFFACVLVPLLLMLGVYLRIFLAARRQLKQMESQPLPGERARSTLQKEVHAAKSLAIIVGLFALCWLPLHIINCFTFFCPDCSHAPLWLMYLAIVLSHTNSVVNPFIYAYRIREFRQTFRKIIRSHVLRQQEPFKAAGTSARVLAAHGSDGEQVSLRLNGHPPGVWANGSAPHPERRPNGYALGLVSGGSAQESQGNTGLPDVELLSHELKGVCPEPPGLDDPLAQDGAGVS

SMILES	Ki [1]	Selectivity ratio [2]	also measured
COCCOc1ccc(N2CCN(CCn3cnc4c3nc(N)n3nc(-c5ccco5)nc43)CC2)c(F)c1	0.8 nM	517	–
COCCOc1ccc(N2CCN(CCn3cnc4c3nc(N)n3nc(-c5ccco5)nc43)CC2)c(C(F)(F)F)c1	0.4 nM	218	–
COc1ccc(N2CCN(CCn3cnc4c3nc(N)n3nc(-c5ccco5)nc43)CC2)cc1	0.1 nM	1700	–
COCCOc1ccc(N2CCN(CCn3cnc4c3nc(N)n3nc(-c5ccccc5F)nc43)CC2)cc1	9.3 nM	15	–
Nc1nc2c(ncn2CCN2CCN(c3ccc(Cl)cn3)CC2)c2nc(-c3ccco3)nn12	0.9 nM	333	–
Nc1nc2c(ncn2CCN2CCN(c3nccs3)CC2)c2nc(-c3ccco3)nn12	1.7 nM	138	–
Nc1nc2c(ncn2Cc2ccccc2)c2nc(-c3ccco3)nn12	1.5 nM	17	–
COCCOc1ccc(N2CCN(CCn3cnc4c3nc(N)n3nc(-c5ccccc5C)nc43)CC2)cc1	20.5 nM	76	–
Nc1nc2c(ncn2CCN2CCC(c3ccc(F)cc3)CC2)c2nc(-c3ccco3)nn12	0.9 nM	196	–
COCCOc1ccc(N2CCN(CCn3cnc4c3nc(N)n3nc(-c5ccccc5C(F)(F)F)nc43)CC2)cc1	10 nM	181	–
COCCOc1ccc(C2CCN(CCn3cnc4c3nc(N)n3nc(-c5ccco5)nc43)CC2)cc1	0.7 nM	519	–
Nc1nc2c(ncn2Cc2ccccc2Br)c2nc(-c3ccco3)nn12	4.6 nM	7	–
CCCn1cnc2c1nc(N)n1nc(-c3ccco3)nc21	5.9 nM	50	–
Nc1nc2c(ncn2CCN2CCOCC2)c2nc(-c3ccco3)nn12	6.3 nM	37	–
COCCOc1ccc(N2CCN(CCn3cnc4c3nc(N)n3nc(-c5ccccc5)nc43)CC2)cc1	3.7 nM	91	–
Nc1nc2c(ncn2Cc2ccccc2C(F)(F)F)c2nc(-c3ccco3)nn12	4.6 nM	30	–
Nc1nc2c(ncn2CCN2CCN(c3cccc(Cl)c3)CC2)c2nc(-c3ccco3)nn12	0.4 nM	371	–
Nc1nc2c(ncn2CCN2CCN(c3ccccc3)CC2)c2nc(-c3ccco3)nn12	1.7 nM	182	–
COCCOc1ccc(N2CCN(CCn3cnc4c3nc(N)n3nc(-c5cccc[n+]5[O-])nc43)CC2)cc1	89.7 nM	17	–
Nc1nc2c(ncn2CCN2CCN(c3ccc(F)cc3F)CC2)c2nc(-c3ccco3)nn12	0.7 nM	88	–
Cc1ccc(N2CCN(CCn3cnc4c3nc(N)n3nc(-c5ccco5)nc43)CC2)nc1	1 nM	162	–
Nc1nc2c(ncn2Cc2ccccc2Cl)c2nc(-c3ccco3)nn12	1.7 nM	9	–
Nc1nc2c(ncn2CCN2CCN(c3ccc(Cl)cc3F)CC2)c2nc(-c3ccco3)nn12	0.3 nM	403	–
COCCOc1ccc(N2CCN(CCn3cnc4c3nc(N)n3nc(-c5ccccn5)nc43)CC2)cc1	12.6 nM	108	–
COCCOc1ccc(N2CCN(CCn3cnc4c3nc(N)n3nc(-c5cccc(F)c5)nc43)CC2)cc1	2 nM	83	–
Nc1nc2c(ncn2CCN2CCN(c3ncc(F)cn3)CC2)c2nc(-c3ccco3)nn12	1.4 nM	378	–
Nc1nc2c(ncn2CCc2ccccc2)c2nc(-c3ccco3)nn12	4.1 nM	33	–
COCCOc1ccc(N2CCN(CCn3cnc4c3nc(N)n3nc(-c5ccco5)nc43)CC2)cc1	0.9 nM	669	Activity [3]: 55%; Activity [4]: 50%; Activity [5]: 80%; AUC [6]: 524 ng·h/mL; Activity [7]: 50%
